Data set [1] is described as follows: Cytotoxicity in Artemia cysts assessed as mortality of nauplii after 24 hrs. In kind it is organism-based. To be noted: in vivo.
Data set [2] in a line: Cytotoxicity in Artemia cysts assessed as mortality of nauplii at 40 ug/mL after 24 hrs relative to control. In kind it is organism-based. To be noted: in vivo.
A short description of data set [3]: Cytotoxicity in Artemia cysts assessed as mortality of nauplii at 50 ug/mL after 24 hrs relative to control. The settings on record: in vivo. In kind it is organism-based.
Data set [4] in a line: Cytotoxicity in Artemia cysts assessed as mortality of nauplii at 30 ug/mL after 24 hrs relative to control. In kind it is organism-based. The settings on record: in vivo.
Data set [5] can be described thus: Cytotoxicity in Artemia cysts assessed as mortality of nauplii at 20 ug/mL after 24 hrs relative to control. In kind it is organism-based. The settings on record: in vivo.
A short description of data set [6]: Cytotoxicity in Artemia cysts assessed as mortality of nauplii at 10 ug/mL after 24 hrs relative to control. In kind it is organism-based. The settings on record: in vivo.
Data set [7] in a line: Cytotoxicity in Artemia cysts assessed as mortality of nauplii at 5 ug/mL after 24 hrs relative to control. In kind it is organism-based. The settings on record: in vivo.
Data set [8] relates to Mycobacterium tuberculosis. The experiment in a line: Antituberculosis activity against Mycobacterium tuberculosis H37Rv assessed as growth inhibition after 12 to 28 days by Lowenstein-Jensen method. In kind it is functional.
For data set [9], the system named is Mycobacterium tuberculosis. Briefly: Antituberculosis activity against Mycobacterium tuberculosis H37Rv assessed as growth inhibition at 250 ug/ml after 12 to 28 days by Lowenstein-Jensen method relative to control. To be noted: read-out: GI. In kind it is functional.
For data set [10], the system named is Trichophyton rubrum. The experiment in a line: Antifungal activity against Trichophyton rubrum MTCC 296 assessed as growth inhibition by broth microdilution method. In kind it is functional.
Data set [11] has as its system Candida albicans. The experiment in a line: Antifungal activity against Candida albicans MTCC 227 assessed as growth inhibition by broth microdilution method. In kind it is functional. For orientation: In broth dilution the organism is exposed to a series of concentrations in liquid medium.
Data set [12] relates to Pseudomonas aeruginosa. Briefly: Antibacterial activity against Pseudomonas aeruginosa MTCC 1688 assessed as growth inhibition by broth microdilution method. In kind it is functional.
Data set [13] deals with Salmonella typhi. The experiment in a line: Antibacterial activity against Salmonella typhi MTCC 98 assessed as growth inhibition by broth microdilution method. To be noted: Salmonella enterica. In kind it is functional, Salmonella enterica subsp. enterica serovar Typhi.
Data set [14] deals with Clostridium tetani. The experiment in a line: Antibacterial activity against Clostridium tetani MTCC 449 assessed as growth inhibition by broth microdilution method. In kind it is functional.
Data set [15] deals with Escherichia coli. The experiment in a line: Antibacterial activity against Escherichia coli MTCC 443 assessed as growth inhibition by broth microdilution method. In kind it is functional.
The test system of data set [16] is Staphylococcus aureus. Briefly: Antibacterial activity against Staphylococcus aureus MTCC 96 assessed as growth inhibition by broth microdilution method. In kind it is functional.
The test system of data set [17] is Bacillus subtilis. The experiment in a line: Antibacterial activity against Bacillus subtilis MTCC 441 assessed as growth inhibition by broth microdilution method. In kind it is functional.

Each structure is given as a SMILES string. ≈ marks a conversion by molar mass, not a printed value. Bounds are passed on as bounds.

As for `COc1cc([C@@H]2c3cc4c(cc3[C@@H](O[C@@H]3O[C@@H]5CO[C@@H](C)O[C@H]5[C@H](O)[C@H]3O)[C@H]3COC(=O)[C@H]23)OCO4)cc(OC)c1O` [ETOPOSIDE], the 50% lethal concentration (LC50) at 24 h in data set [1] was found to be 7.46 µg/mL (≈ 12.7 µM).
Take `C=CCn1c(=O)c(C2C(C(=O)OC(C)C)=C(N)N(NC(=O)c3ccncc3)C3=C2C(=O)CC(C)(C)C3)cc2cc(Cl)ccc21` (stereo unspecified): the LC50 at 24 h in data set [1] came to 24.5 µg/mL (≈ 39.7 µM). For the same molecule, the mortality at 24 h, 40 ug/mL in data set [2] stood at 70%. Further, the mortality at 24 h, 50 ug/mL in data set [3] came to 90%. In addition, in data set [4], the mortality at 24 h, 30 ug/mL was found to be 50%. Further, in data set [5], the mortality at 24 h, 20 ug/mL worked out at 30%. Moreover, in data set [6], the mortality at 24 h, 10 ug/mL turned out to be 10%. Moreover, the mortality at 24 h, 5 ug/mL in [7] was determined as 0%. In addition, the MIC turned out to be 62.5 µg/mL (≈ 101 µM) in data set [8]; 500 µg/mL in [10]; 1000 µg/mL in data set [11]; 500 µg/mL in [12]; 125 µg/mL in data set [13]; 125 µg/mL in data set [14]. For the same molecule, the values for the minimal inhibitory concentration (MIC) in [15], in data set [16] and in data set [17] were 200 µg/mL, 125 µg/mL and 500 µg/mL, respectively. The inhibition of growth at 250 µg/mL in data set [9] turned out to be 94%.
Consider `C=CCn1c(=O)c(C2C(C(=O)OC(C)C)=C(N)N(NC(=O)c3ccncc3)C3=C2C(=O)CC(C)(C)C3)cc2cc(C)ccc21` (stereo unspecified), for which the LC50 at 24 h in data set [1] was 35.4 µg/mL (≈ 59.4 µM). For the same molecule, in data set [2], the mortality at 24 h, 40 ug/mL came to 50%. For the same molecule, the mortality at 24 h, 50 ug/mL in data set [3] worked out at 70%. Further, the mortality at 24 h, 30 ug/mL in [4] came out at 40%. Besides, the mortality at 24 h, 20 ug/mL in data set [5] was 30%. In addition, the mortality at 24 h, 10 ug/mL in data set [6] was 10%. Also, the mortality at 24 h, 5 ug/mL in [7] was found to be 0%. The MIC worked out at 12.5 µg/mL (≈ 21 µM) in data set [8]; 1000 µg/mL in data set [10]; 500 µg/mL in [11]; 200 µg/mL in data set [12]; 200 µg/mL in data set [13]; 500 µg/mL in [14]. The figures for the minimum inhibitory concentration (MIC) in [15], in data set [16] and in [17] were 125 µg/mL, 500 µg/mL and 500 µg/mL, respectively. In addition, the inhibition of growth at 250 µg/mL in data set [9] is 99%.
Consider `NNC(=O)c1ccncc1` [ISONIAZID], for which the MIC in data set [8] was 0.2 µg/mL (≈ 1.46 µM). Moreover, the inhibition of growth at 250 µg/mL in [9] came to 99%.
Consider `C=CCn1c(=O)c(C2C(C(=O)OC)=C(N)N(NC(=O)c3ccncc3)C3=C2C(=O)CC(C)(C)C3)cc2cc(C)ccc21` (stereo unspecified), for which the median lethal concentration (LC50) at 24 h in data set [1] came to 34.6 µg/mL (≈ 60.9 µM). For the same molecule, the mortality at 24 h, 40 ug/mL in data set [2] came to 60%. Moreover, in data set [3], the mortality at 24 h, 50 ug/mL came out at 70%. The mortality at 24 h, 30 ug/mL in data set [4] came to 40%. The mortality at 24 h, 20 ug/mL in [5] stood at 20%. For the same molecule, in data set [6], the mortality at 24 h, 10 ug/mL was 10%. For the same molecule, the mortality at 24 h, 5 ug/mL in data set [7] came out at 0%. In addition, the MIC is 25 µg/mL (≈ 44 µM) in data set [8]; more than 1000 µg/mL in data set [10]; 500 µg/mL in data set [11]; 250 µg/mL in data set [12]; 100 µg/mL in data set [13]; 500 µg/mL in data set [14]. For the same molecule, the figures for the MIC in [15], in data set [16] and in [17] were 125 µg/mL, 500 µg/mL and 200 µg/mL, respectively. Moreover, the inhibition of growth at 250 µg/mL in data set [9] was determined as 99%.
With `C=CCn1c(=O)c(C2C(C(=O)OCC)=C(N)N(NC(=O)c3ccncc3)C3=C2C(=O)CC(C)(C)C3)cc2cc(C)ccc21` (stereo unspecified), the LC50 at 24 h in [1] was 28.6 µg/mL (≈ 49.1 µM). The mortality at 24 h, 40 ug/mL in [2] was determined as 60%. Besides, in data set [3], the mortality at 24 h, 50 ug/mL came to 80%. The mortality at 24 h, 30 ug/mL in data set [4] was 40%. Also, the mortality at 24 h, 20 ug/mL in [5] is 30%. Moreover, the mortality at 24 h, 10 ug/mL in data set [6] is 20%. Besides, in data set [7], the mortality at 24 h, 5 ug/mL worked out at 0%. Besides, the MIC amounted to 62.5 µg/mL (≈ 107 µM) in data set [8]; 1000 µg/mL in [10]; 500 µg/mL in [11]; 500 µg/mL in data set [12]; 125 µg/mL in data set [13]; 125 µg/mL in [14]. Moreover, the MIC in data set [15] was 62.5 µg/mL; in [16], 125 µg/mL; in data set [17], 500 µg/mL. For the same molecule, the inhibition of growth at 250 µg/mL in [9] was 94%.
Regarding `C=CCn1c(=O)c(C2C(C(=O)OC)=C(N)N(NC(=O)c3ccncc3)C3=C2C(=O)CCC3)cc2cc(OC)ccc21` (stereo unspecified), the LC50 at 24 h in data set [1] worked out at 19.7 µg/mL (≈ 35.4 µM). Besides, the mortality at 24 h, 40 ug/mL in data set [2] stood at 80%. Moreover, the mortality at 24 h, 50 ug/mL in data set [3] was 90%. The mortality at 24 h, 30 ug/mL in [4] worked out at 60%. In data set [5], the mortality at 24 h, 20 ug/mL amounted to 40%. For the same molecule, in data set [6], the mortality at 24 h, 10 ug/mL was found to be 20%. The mortality at 24 h, 5 ug/mL in data set [7] came out at 10%. Besides, the MIC in [8] was 50 µg/mL (≈ 90 µM); in [10] it was more than 1000 µg/mL; in data set [11] it was 1000 µg/mL; in data set [12], 125 µg/mL; in data set [13], 125 µg/mL; in data set [14], 125 µg/mL. The MIC in data set [15] came to 100 µg/mL; in [16] it was 200 µg/mL; in data set [17], 50 µg/mL. In addition, in [9], the inhibition of growth at 250 µg/mL is 98%.
Turning to `C=CCn1c(=O)c(C2C(C(=O)OC)=C(N)N(NC(=O)c3ccncc3)C3=C2C(=O)CC(C)(C)C3)cc2ccccc21` (stereo unspecified), the inhibition of growth at 250 µg/mL in [9] worked out at 74%. The minimum inhibitory concentration (MIC) is more than 1000 µg/mL in data set [10]; 250 µg/mL in data set [11]; 125 µg/mL in data set [12]; 200 µg/mL in data set [13]; 200 µg/mL in [14]; 200 µg/mL in data set [15]. Also, the results for the minimum inhibitory concentration (MIC) in data set [16] and in data set [17] were 200 µg/mL and 125 µg/mL, respectively.
As to `C=CCn1c(=O)c(C2C(C(=O)OCC)=C(N)N(NC(=O)c3ccncc3)C3=C2C(=O)CC(C)(C)C3)cc2cc(OC)ccc21` (stereo unspecified), the LC50 at 24 h in data set [1] turned out to be 26.6 µg/mL (≈ 44.5 µM). In addition, the mortality at 24 h, 40 ug/mL in data set [2] is 60%. Besides, in data set [3], the mortality at 24 h, 50 ug/mL amounted to 80%. In addition, the mortality at 24 h, 30 ug/mL in data set [4] worked out at 50%. The mortality at 24 h, 20 ug/mL in data set [5] came out at 30%. Besides, the mortality at 24 h, 10 ug/mL in data set [6] stood at 20%. For the same molecule, the mortality at 24 h, 5 ug/mL in [7] was 10%. The MIC in data set [8] worked out at 100 µg/mL (≈ 167 µM); in data set [10] it was 1000 µg/mL; in [11], 500 µg/mL; in data set [12], 125 µg/mL; in data set [13], 125 µg/mL; in data set [14], 250 µg/mL. Also, the minimum inhibitory concentration (MIC) in data set [15] stood at 250 µg/mL; in [16] it was 200 µg/mL; in [17] it was 125 µg/mL. For the same molecule, in data set [9], the inhibition of growth at 250 µg/mL was 96%.
With `CO[C@H]1/C=C/O[C@@]2(C)Oc3c(C)c(O)c4c(O)c(c(/C=N/N5CCN(C)CC5)c(O)c4c3C2=O)NC(=O)/C(C)=C\C=C\[C@H](C)[C@H](O)[C@@H](C)[C@@H](O)[C@@H](C)[C@H](OC(C)=O)[C@@H]1C` [RIFAMPIN], the MIC in data set [8] was 40 µg/mL (≈ 48.6 µM). Further, the inhibition of growth at 250 µg/mL in [9] is 98%.

For orientation: LC50 means the concentration lethal to half of the exposed cells or organisms. Usually mortality stands for the percentage killed. As usually defined, the MIC is the lowest concentration found to suppress growth.
